{"source": "paper PMC9117551", "about": "(iScience, 2022)", "assay_in_all_cases": "SPR", "format_in_all_cases": "binding", "key": {"[1]": {"biological_target": "T1, serine hydroxymethyltransferase 2 (SHMT2) (Homo sapiens, UniProt P34897)", "T1 sequence (P34897 22-504 limits assumed)": "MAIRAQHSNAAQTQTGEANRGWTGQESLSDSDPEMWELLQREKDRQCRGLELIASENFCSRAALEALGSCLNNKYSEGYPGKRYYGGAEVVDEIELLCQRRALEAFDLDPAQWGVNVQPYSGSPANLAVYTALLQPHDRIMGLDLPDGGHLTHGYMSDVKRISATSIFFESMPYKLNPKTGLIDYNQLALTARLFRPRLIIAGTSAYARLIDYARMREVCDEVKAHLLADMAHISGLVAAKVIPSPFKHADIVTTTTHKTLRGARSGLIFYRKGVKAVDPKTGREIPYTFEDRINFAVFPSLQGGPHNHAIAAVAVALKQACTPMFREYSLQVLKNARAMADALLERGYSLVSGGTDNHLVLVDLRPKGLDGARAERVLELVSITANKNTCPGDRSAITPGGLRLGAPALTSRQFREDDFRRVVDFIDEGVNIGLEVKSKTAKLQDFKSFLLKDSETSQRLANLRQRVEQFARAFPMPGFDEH"}, "[2]": {"biological_target": "T2, SHMT1 (Homo sapiens, UniProt P34896)", "T2 sequence (P34896 2-483)": "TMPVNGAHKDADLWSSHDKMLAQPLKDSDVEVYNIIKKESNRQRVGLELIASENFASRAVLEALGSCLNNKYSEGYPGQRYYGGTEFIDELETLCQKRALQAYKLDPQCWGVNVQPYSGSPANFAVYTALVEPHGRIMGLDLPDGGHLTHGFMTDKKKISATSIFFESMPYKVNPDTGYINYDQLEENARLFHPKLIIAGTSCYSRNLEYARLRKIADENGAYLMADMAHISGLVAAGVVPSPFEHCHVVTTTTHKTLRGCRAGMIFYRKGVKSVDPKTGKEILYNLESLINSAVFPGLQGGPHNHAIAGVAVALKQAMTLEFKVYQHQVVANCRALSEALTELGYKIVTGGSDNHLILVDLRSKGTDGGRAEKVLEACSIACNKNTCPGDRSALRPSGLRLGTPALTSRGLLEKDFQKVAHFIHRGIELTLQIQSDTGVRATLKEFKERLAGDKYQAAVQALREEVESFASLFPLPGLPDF"}, "[3]": {"biological_target": "T1, serine hydroxymethyltransferase 2 (SHMT2)", "remark": "listed apart in the source"}}, "note": "Read-outs that look alike come from different tables or passages of the source.", "data": [{"smiles": "CC1(C)[C@@H](OC(=O)CCC(=O)O)CC[C@]2(C)[C@H]3C(=O)C=C4[C@@H]5C[C@@](C)(C(=O)O)CC[C@]5(C)CC[C@@]4(C)[C@]3(C)CC[C@@H]12", "note": "[CBX, Carbenoxolone]", "values": [{"measurement": "Kd", "setting": "[1]", "result": 15.1, "unit": "µM"}]}, {"smiles": "CC1(C)[C@@H](O)CC[C@]2(C)[C@H]3C(=O)C=C4[C@@H]5C[C@@](C)(C(=O)O)CC[C@]5(C)CC[C@@]4(C)[C@]3(C)CC[C@@H]12", "note": "[GA, Glycyrrhetinic acid]", "values": [{"measurement": "Kd", "setting": "[2]", "result": 2.37, "unit": "µM"}, {"measurement": "Kd", "setting": "[3]", "result": 2.9, "unit": "µM"}]}, {"smiles": "Nc1nc2c(c(=O)[nH]1)NC(CNc1ccc(C(=O)N[C@@H](CCC(=O)O)C(=O)O)cc1)CN2", "note": "(stereo partly shown) [THF, Tetrahydrofolic acid]", "values": [{"measurement": "Kd", "setting": "[1]", "result": 3.51, "unit": "µM"}]}]}
